Experimental findings from patent publication US20070265278A1, “2-PHENYL-INDOLES AS PROSTAGLANDIN D2 RECEPTOR ANTAGONISTS” (Aventis Pharmaceuticals Inc., priority 2005, published 2007) are described below.

The target in this experiment is T1, DP receptor (Homo sapiens, UniProt Q13258).
T1 construct: using the human cell line LS174T, which expresses the endogenous DP receptor; endogenous in cells; host or cells: LS174T human cell line
T1 sequence (Q13258 1-359): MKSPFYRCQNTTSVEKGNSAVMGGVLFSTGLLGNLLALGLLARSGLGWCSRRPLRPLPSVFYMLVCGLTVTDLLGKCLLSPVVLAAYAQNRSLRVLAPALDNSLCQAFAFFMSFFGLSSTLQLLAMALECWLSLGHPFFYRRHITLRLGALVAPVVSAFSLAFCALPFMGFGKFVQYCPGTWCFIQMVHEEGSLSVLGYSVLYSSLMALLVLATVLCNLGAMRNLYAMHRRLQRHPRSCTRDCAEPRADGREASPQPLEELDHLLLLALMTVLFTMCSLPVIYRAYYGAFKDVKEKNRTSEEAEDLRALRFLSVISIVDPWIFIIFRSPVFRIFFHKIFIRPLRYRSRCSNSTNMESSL
The experiment is described as follows: SPA cAMP assay in human LS174 T cells (human DP functional assay). Format: cell-based. To be noted: inhibition of PGD2 (15 nM)-stimulated cAMP, LS174T cells expressing endogenous DP receptor. As for the experimental part:
The inhibitory effects of the compounds according to the invention are assessed in a human DP functional assay. A cAMP assay is employed using the human cell line LS174T, which expresses the endogenous DP receptor. The protocol is similar to that described previously (Wright D H, Ford-Hutchinson A W, Chadee K, Metters K M, The human prostanoid DP receptor stimulates mucin secretion in LS174T cells, Br J Pharmacol. 131(8):1537-45 (2000)).
Protocol for SPA cAMP Assay in Human LS174 T Cells
• PGD2 (Cayman Chemical Cat#12010) • IBMX (Sigma Cat# 5879) • cAMP SPA direct screening assay system (Amersham code RPA 559) • 96-well cell plates (Wallac Cat# 1450-516) • Wallac 1450 Microplate Trilux scintillation counter (PerkinElmer) • Plate sealers • Eppendorf tubes • Dulbecco's Phosphate-Buffered Saline (PBS) (Invitrogen Cat#14040-133) • Distilled water • Vortex • Magnetic stirrer and stirrer bars Reagent Preparation:
All reagents should be allowed to equilibrate to room temperature before reconstitution.
Transfer the contents of the bottle to a 500 mL graduated cylinder by repeated washing with distilled water. Adjust the final volume to 500 mL with distilled water and mix thoroughly.
Dissolve each of the lysis reagents 1 and 2 in 200 mL assay buffer respectively. Leave at room temperature for 20 minutes to dissolve.
Add 30 mL of lysis buffer 2 to the bottle. Gently shake the bottle for 5 minutes.
Add 15 mL of lysis buffer 2 to each vial, and gently mix until the contents are completely dissolved.
Add 14 mL lysis buffer 2 to each vial and gently mix until the contents are completely dissolved.
Preparation of Immunoreagent
• 1) Add equal volumes of tracer, antiserum and SPA anti-rabbit reagent to a bottle, ensuring that a sufficient volume of this mixture is prepared for the desired number of wells (150 μL/well). • 2) Mix thoroughly. • 3) This immunoreagent solution should be freshly prepared before each assay and not re-used. Standard • 1) Add 1 mL lysis buffer 1 and gently mix until contents are completely dissolved. • 2) The final solution contains cAMP at a concentration of 512 pmol/mL. • 3) Label 7 polypropylene or polystyrene tubes, 0.2 pmol, 0.4 pmol, 0.8 pmol, 1.6 pmol, 3.2 pmol, 6.4 pmol and 12.8 pmol. • 4) Pipette 500 μL of lysis buffer 1 into all the tubes. • 5) Into the 12.8 pmol tube pipette 500 μL of stock standard (512 pmol/mL) and mix thoroughly. Transfer 500 μL from 12.8 pmol tube to the 6.4 pmol tube and mix thoroughly. Repeat this doubling dilution successively with the remaining tubes.
6) 50 μL aliquots in duplicate from each serial dilution and the stock standard will give rise to 8 standard levels of cAMP ranging from 0.2-25.6 pmol standard
Add 50 μL of […] IBMX into 100 mL PBS to make a final concentration of 100 μM and sonicate at 30° C. for 20 minutes.
Dissolve 1 mg PGD2 (FW, 352.5) in 284 μL DMSO to make 10 mM stock solution and store at […]. Before each assay, it is freshly prepared. Add 3 μL of 10 mM stock solution to 20 mL DMSO, mix it thoroughly, and transfer 10 mL to 40 mL PBS.
Compound dilution is carried out in Biomex 2000 (Beckman) using Method 1_cAMP DP 11 points.
5 μL of each compound from the 10 mM stock compound plates is transferred to the wells of a 96-well plate respectively as below.
Fill the plate with 45 μL of DMSO except column 7 is filled with 28 μL DMSO. Pipette column 1 thoroughly, and transfer 12 μL into column 7 parallel. Perform 1:10 serial dilution from column 1 to column 6 and from column 7 to column 11 by transfer 5 μL to 45 μL DMSO to make following concentrations:
Fill a new 96-well plate with 247.5 μL of compound dilution buffer. Transfer 2.5 μL of serially diluted compounds from above plate to the new plate (1:100 dilution) as following:
Cell Growth • 1. LS174 T are always grown in MEM (ATCC Cat# 30-2003), 10% FBS (ATCC Cat# 30-2020) and additional 2 mM L-glutamine, at 37° C. and 5% CO2. • 2. Warm 0.05% Trypsin and Versine (Invitrogen Cat# 25300-054) at 37° C. water bath. • 3. […]

Broadly, the IC50 is the midpoint of a concentration-inhibition curve. The low end stands for inhibition by little substance, the high end for a need for much substance. `Cc1ccc(-c2[nH]c3ccccc3c2CC(=O)O)cc1S(=O)(=O)NC1CCCCC1` [Example 10(k), [2-(3-Cyclohexylsulfamoyl-4-methyl-phenyl)-1H-indol-3-yl]-acetic acid] returned an IC50 of 2 nM.

Compound `O=C(O)Cc1c(-c2ccc(Cl)c(S(=O)(=O)NC3CCCCC3)c2)[nH]c2cc(Cl)ccc12` [Example 10(d), [6-Chloro-2-(4-chloro-3-cyclohexylsulfamoyl-phenyl)-1H-indol-3-yl]-acetic acid] gave an IC50 of 1 nM.

In turn, `O=C(O)Cc1c(-c2ccc(Cl)c(S(=O)(=O)NC3CCCCC3)c2)[nH]c2ccc(OC(F)(F)F)cc12` [Example 1(v), [2-(4-Chloro-3-cyclohexylsulfamoyl-phenyl)-5-trifluoromethoxy-1H-indol-3-yl]-acetic acid] returned an IC50 of 4.2 nM.

`CN(C1CCCCC1)S(=O)(=O)c1cc(-c2[nH]c3ccccc3c2CC(=O)O)ccc1Cl` [Example 1(x), {2-[4-Chloro-3-(cyclohexyl-methyl-sulfamoyl)-phenyl]-1H-indol-3-yl}-acetic acid] came in with an IC50 of 346 nM.

`O=C(O)Cc1c(-c2ccc(Cl)c(S(=O)(=O)NC3CCCCC3)c2)[nH]c2ccc(O)cc12` [Example 10(c), [2-(4-Chloro-3-cyclohexylsulfamoyl-phenyl)-5-hydroxy-1H-indol-3-yl]-acetic acid] yielded an IC50 of 4.2 nM.

Consider `CCCCCCNS(=O)(=O)c1cc(-c2[nH]c3ccccc3c2CC(=O)O)ccc1Cl` [Example 1(c), [2-(4-Chloro-3-hexylsulfamoyl-phenyl)-1H-indol-3-yl]-acetic acid], for which half-maximal inhibition (IC50) was put at 31 nM.

Take `O=C(O)Cc1c(-c2ccc(Cl)c(S(=O)(=O)NC3CCCCC3)c2)n(Cc2ccccc2)c2ccccc12` [Example 2(b), [1-Benzyl-2-(4-chloro-3-cyclohexylsulfamoyl-phenyl)-1H-indol-3-yl]-acetic acid]: the IC50 is 42 nM.

`O=C(O)Cc1c(-c2ccc(Cl)c(S(=O)(=O)NC3Cc4ccccc4C3)c2)[nH]c2ccccc12` [Example 1(d), {2-[4-Chloro-3-(indan-2-ylsulfamoyl)-phenyl]-1H-indol-3-yl}-acetic acid]: the IC50 was 9.6 nM.

Take `CC(C)NS(=O)(=O)c1cc(-c2[nH]c3ccccc3c2CC(=O)O)ccc1Cl` [Example 1(g), [2-(4-Chloro-3-isopropylsulfamoyl-phenyl)-1H-indol-3-yl]-acetic acid]: the concentration for half-maximal inhibition (IC50) amounted to 49 nM.

Take `O=C(O)Cc1c(-c2ccc(Cl)c(S(=O)(=O)NC3CC4CCC3C4)c2)[nH]c2ccccc12` (stereo not shown) [Example 1(b), {2-[3-(Bicyclo[2.2.1]hept-2-ylsulfamoyl)-4-chloro-phenyl]-1H-indol-3-yl}-acetic acid]: the IC50 came to 3 nM.

In turn, `COc1ccc(-c2[nH]c3ccccc3c2CC(=O)O)cc1S(=O)(=O)NC1CCCCC1` [Example 10(i), [2-(3-Cyclohexylsulfamoyl-4-methoxy-phenyl)-1H-indol-3-yl]-acetic acid] displayed an IC50 of 63 nM.

With `O=C(Cc1c(-c2ccc(Cl)c(S(=O)(=O)NC3CCCCC3)c2)[nH]c2ccccc12)NS(=O)(=O)c1ccccc1` [Example 6, 5-[3-(2-Benzenesulfonylamino-2-oxo-ethyl)-1H-indol-2-yl]-2-chloro-N-cyclohexyl benzenesulfonamide], the IC50 stood at 5 nM.

In turn, `O=C(O)Cc1c(-c2ccc(S(=O)(=O)NC3CCCCC3)c(Cl)c2)[nH]c2ccccc12` [Example 10(j), [2-(3-Chloro-4-cyclohexylsulfamoyl-phenyl)-1H-indol-3-yl]-acetic acid] came in with a 50% inhibitory concentration (IC50) of 1220 nM.

`NC(=O)Cc1c(-c2ccc(Cl)c(S(=O)(=O)NC3CCCCC3)c2)[nH]c2ccccc12` [Example 7(a), 2-[2-(4-Chloro-3-cyclohexylsulfamoyl-phenyl)-1H-indol-3-yl]-acetamide] registered an IC50 of 132 nM.

The compound `O=C(O)Cc1c(-c2ccc(Cl)c(NS(=O)(=O)c3ccccc3)c2)[nH]c2ccccc12` [Example 13, [2-(3-benzenesulfonylamino-4-chlorophenyl)-1H-indol-3-yl]-acetic acid] had an IC50 of 39 nM.

The compound `O=C(O)Cc1c(-c2ccc(Cl)c(S(=O)(=O)NC3CCCCC3)c2)[nH]c2ccccc12` [Example 1(a), [2-(4-Chloro-3-cyclohexylsulfamoyl-phenyl)-1H-indol-3-yl]-acetic acid] displayed an IC50 of 2.2 nM.

As for `COc1ccc2[nH]c(-c3ccc(Cl)c(S(=O)(=O)NC4CCCCC4)c3)c(CC(=O)O)c2c1` [Example 10(a), [2-(4-Chloro-3-cyclohexylsulfamoyl-phenyl)-5-methoxy-1H-indol-3-yl]-acetic acid], 3 nM corresponded to half-maximal inhibition (IC50).

As for `O=C(O)Cc1c(-c2ccc(Cl)c(S(=O)(=O)NC3CCOCC3)c2)[nH]c2ccccc12` [Example 1(o), {2-[4-Chloro-3-(tetrahydro-pyran-4-ylsulfamoyl)-phenyl]-1H-indol-3-yl}-acetic acid], the IC50 worked out at 52 nM.

For the compound `Cn1c(-c2ccc(Cl)c(S(=O)(=O)NC3CCCCC3)c2)c(CC(=O)O)c2ccccc21` [Example 2(a), [2-(4-Chloro-3-cyclohexylsulfamoyl-phenyl)-1-methyl-1H-indol-3-yl]-acetic acid], the IC50 is 52 nM.

The compound `O=C(O)c1c(-c2ccc(Cl)c(S(=O)(=O)NC3CCCCC3)c2)[nH]c2ccccc12` [Example 15, 2-(4-Chloro-3-cyclohexylsulfamoyl-phenyl)-1H-indole-3-carboxylic acid] gave a half-inhibitory concentration (IC50) of 741 nM.

With `O=C(O)Cc1c(-c2ccc(Cl)c(NC(=O)C3CCCCC3)c2)[nH]c2ccccc12` [Example 14, {2-[4-chloro-3-(cyclohexanecarbonyl-amino)-phenyl]-1H-indol-3-yl}-acetic acid], half-maximal inhibition (IC50) required 5860 nM.

In the case of `COC(=O)[C@@H](NC(=O)Cc1c(-c2ccc(Cl)c(S(=O)(=O)NC3CCCCC3)c2)[nH]c2ccccc12)C(C)C` [Example 3(a), (S)-2-{2-[2-(4-chloro-3-cyclohexylsulfamoyl-phenyl)-1H-indol-3-yl]-acetylamino}-3-methyl-butyric acid methyl ester], inhibition was half-maximal at 160 nM (IC50).

Consider `O=C(O)Cc1c(-c2ccc(Cl)c(S(=O)(=O)N3CCCCC3)c2)[nH]c2ccccc12` [Example 1(p), {2-[4-Chloro-3-(piperidine-1-sulfonyl)-phenyl]-1H-indol-3-yl}-acetic acid], for which the IC50 was 678 nM.

`CN(C1CCCCC1)S(=O)(=O)c1cccc(-c2[nH]c3ccccc3c2CC(=O)O)c1` [Example 10(e), {2-[3-(Cyclohexyl-methyl-sulfamoyl)-phenyl]-1H-indol-3-yl}-acetic acid]: 346 nM corresponded to half-maximal inhibition (IC50).

The compound `O=C(O)Cc1c(-c2ccc(S(=O)(=O)NC3CCCCC3)cc2)[nH]c2ccccc12` [Example 10(h), [2-(4-Cyclohexylsulfamoyl-phenyl)-1H-indol-3-yl]-acetic acid] returned an IC50 of 1160 nM.
